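Method: 48-hour compound exposure of cells in 96-well plates, five concentrations, linear interpolation of endpoints. The concentration for 50% growth inhibition is given as GI50.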 Calls of active or inactive are those of the source. Cut-off read from the data, not from the text of the source: active = GI50 up to about 1.1 µM and inactive = higher.
Assays:
Test in all cases: inhibition of tumour cell growth, NCI panel, 48 h
[1] = system: 786-0
[2] = system: A498
[3] = system: A549
[4] = system: ACHN
[5] = system: CAKI-1
[6] = system: CCRF-CEM
[7] = system: COLO 205
[8] = system: DLD-1
[9] = system: DMS-273
[10] = system: EKVX
[11] = system: HCC 2998
[12] = system: HCT-116
[13] = system: HCT-15
[14] = system: HL-60
[15] = system: HOP-18
[16] = system: HOP-62
[17] = system: HOP-92
[18] = system: HT-29
[19] = system: IGROV-1
[20] = system: K562
[21] = system: KM-20L2
[22] = system: KM12
[23] = system: LOX IMVI
[24] = system: LXFL 529
[25] = system: M14
[26] = system: M19-MEL
[27] = system: MOLT-4
[28] = system: Malme-3M
[29] = system: NCI-H226
[30] = system: NCI-H23
[31] = system: NCI-H460
[32] = system: NCI-H522
[33] = system: OVCAR-3
[34] = system: OVCAR-4
[35] = system: OVCAR-5
[36] = system: OVCAR-8
[37] = system: RPMI-8226
[38] = system: RXF 393
[39] = system: SF-268
[40] = system: SF-295
[41] = system: SF-539
[42] = system: SK-MEL-28
[43] = system: SK-MEL-2
[44] = system: SK-MEL-5
[45] = system: SK-OV-3
[46] = system: SN12C
[47] = system: SNB-19
[48] = system: SNB-75
[49] = system: SNB-78
[50] = system: SR
[51] = system: TK-10
[52] = system: U-251
[53] = system: UACC-257
[54] = system: UACC-62
[55] = system: UO-31
[56] = system: XF498
[57] = system: DMS-114
[58] = system: SW-620

CCOC(=O)C1=C(OC(OCC)C(C)[Se]c2ccccc2)CCC1 (centres undefined)
GI50 [1]: 12.5 µM (inactive) | GI50 [2]: > 100 µM (inactive) | GI50 [3]: 49.9 µM (inactive) | GI50 [4]: 26.9 µM (inactive) | GI50 [5]: 51.1 µM (inactive) | GI50 [6]: 16.5 µM (inactive) | GI50 [7]: 25.1 µM (inactive) | GI50 [8]: 19.3 µM (inactive) | GI50 [9]: 10.3 µM (inactive) | GI50 [10]: 21.6 µM (inactive) | GI50 [11]: 78.3 µM (inactive) | GI50 [12]: 18.9 µM (inactive) | GI50 [13]: 17.5 µM | GI50 [14]: 4.16 µM (inactive) | GI50 [15]: 20.8 µM (inactive) | GI50 [16]: 64.6 µM (inactive) | GI50 [17]: 24.5 µM (inactive) | GI50 [18]: 28.1 µM (inactive) | GI50 [19]: 26.4 µM (inactive) | GI50 [20]: 42.8 µM (inactive) | GI50 [21]: 29.2 µM (inactive) | GI50 [22]: 59 µM (inactive) | GI50 [23]: 7.21 µM (inactive) | GI50 [24]: 14.3 µM (inactive) | GI50 [25]: 20.5 µM (inactive) | GI50 [26]: 15.8 µM (inactive) | GI50 [27]: 15.9 µM (inactive) | GI50 [28]: 28.1 µM (inactive) | GI50 [29]: 16.6 µM (inactive) | GI50 [30]: 12.4 µM (inactive) | GI50 [31]: 25.4 µM (inactive) | GI50 [32]: 13.1 µM (inactive) | GI50 [33]: 14.7 µM (inactive) | GI50 [34]: 18 µM (inactive) | GI50 [35]: 51.2 µM (inactive) | GI50 [36]: 16 µM (inactive) | GI50 [37]: 13 µM (inactive) | GI50 [38]: 15.7 µM (inactive) | GI50 [39]: 13.3 µM (inactive) | GI50 [40]: 19.8 µM (inactive) | GI50 [41]: 17.5 µM (inactive) | GI50 [42]: 22.6 µM (inactive) | GI50 [43]: > 100 µM (inactive) | GI50 [44]: 19.1 µM (inactive) | GI50 [45]: 94 µM (inactive) | GI50 [46]: 14.6 µM (inactive) | GI50 [47]: 36.1 µM (inactive) | GI50 [48]: 30.1 µM (inactive) | GI50 [49]: 97.1 µM (inactive) | GI50 [50]: 6.4 µM (inactive) | GI50 [51]: > 100 µM (inactive) | GI50 [52]: 6.78 µM (inactive) | GI50 [53]: 39.7 µM (inactive) | GI50 [54]: 15.2 µM (inactive) | GI50 [55]: 24.7 µM (inactive) | GI50 [56]: 16.1 µM (inactive)

COc1ccccc1/C=C(\NC(=O)c1ccccc1)c1nc2ccc(Cl)cc2[nH]1
GI50 [1]: 27.4 µM (inactive) | GI50 [2]: 25.4 µM (inactive) | GI50 [3]: 19.6 µM (inactive) | GI50 [4]: 21.5 µM (inactive) | GI50 [5]: 21.4 µM (inactive) | GI50 [6]: 21.7 µM (inactive) | GI50 [7]: 19.1 µM (inactive) | GI50 [8]: 23.8 µM (inactive) | GI50 [57]: 17.2 µM (inactive) | GI50 [9]: 37.1 µM (inactive) | GI50 [10]: 29.5 µM (inactive) | GI50 [12]: 29 µM (inactive) | GI50 [13]: 30.3 µM | GI50 [15]: 26.2 µM (inactive) | GI50 [17]: 22.7 µM (inactive) | GI50 [18]: 30.8 µM (inactive) | GI50 [19]: 26.9 µM (inactive) | GI50 [20]: 27.4 µM (inactive) | GI50 [21]: 48.8 µM (inactive) | GI50 [22]: 23.7 µM (inactive) | GI50 [23]: 37.2 µM (inactive) | GI50 [24]: 21.1 µM (inactive) | GI50 [25]: 34.9 µM (inactive) | GI50 [26]: 32.9 µM (inactive) | GI50 [27]: 15.2 µM (inactive) | GI50 [28]: 47.8 µM (inactive) | GI50 [29]: 23.3 µM (inactive) | GI50 [30]: 22.2 µM (inactive) | GI50 [31]: 33.8 µM (inactive) | GI50 [32]: 15.6 µM (inactive) | GI50 [33]: 18.5 µM (inactive) | GI50 [34]: 22.9 µM (inactive) | GI50 [35]: 38 µM (inactive) | GI50 [36]: 22.8 µM (inactive) | GI50 [37]: 9.64 µM (inactive) | GI50 [38]: 22.4 µM (inactive) | GI50 [39]: 30.3 µM (inactive) | GI50 [41]: 56.2 µM (inactive) | GI50 [42]: 27.1 µM (inactive) | GI50 [43]: 25.6 µM (inactive) | GI50 [44]: 17.3 µM (inactive) | GI50 [45]: 37.2 µM (inactive) | GI50 [46]: 35.2 µM (inactive) | GI50 [47]: 29.5 µM (inactive) | GI50 [48]: 22.4 µM (inactive) | GI50 [49]: 38.9 µM (inactive) | GI50 [58]: 29.9 µM (inactive) | GI50 [51]: 29.2 µM (inactive) | GI50 [52]: 30.5 µM (inactive) | GI50 [53]: 32.7 µM (inactive) | GI50 [54]: 17.5 µM (inactive) | GI50 [55]: 18 µM (inactive) | GI50 [56]: 34.4 µM (inactive)

Source: ChEMBL document CHEMBL1201862, “PubChem BioAssay data set” (2004)
